pIC50: −log10 of the molar value.

Broadly, the pIC50 is the IC50 on a negative log10 scale, so that one unit is a factor of ten.

The experiment has as its target Adenosylhomocysteinase (Homo sapiens, UniProt P23526). In words: Inhibition of human recombinant placental SAH.

Chain of Adenosylhomocysteinase (P23526 whole entry): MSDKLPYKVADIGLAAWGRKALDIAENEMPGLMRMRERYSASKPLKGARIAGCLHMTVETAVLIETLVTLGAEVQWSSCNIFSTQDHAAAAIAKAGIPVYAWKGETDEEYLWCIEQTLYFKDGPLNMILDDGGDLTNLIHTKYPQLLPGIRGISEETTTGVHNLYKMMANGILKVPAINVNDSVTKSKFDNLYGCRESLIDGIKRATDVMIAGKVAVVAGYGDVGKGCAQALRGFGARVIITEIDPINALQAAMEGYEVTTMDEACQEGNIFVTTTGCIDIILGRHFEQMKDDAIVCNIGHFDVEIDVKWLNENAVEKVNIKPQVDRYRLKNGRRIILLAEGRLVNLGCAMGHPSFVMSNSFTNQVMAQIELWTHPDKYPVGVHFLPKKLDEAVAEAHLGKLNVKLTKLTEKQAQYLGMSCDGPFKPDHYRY

With `NC(=O)NC[C@H]1O[C@@H](n2cnc3c(N)ncnc32)[C@H](O)[C@@H]1O`, the pIC50 was 5.12.

As to `[N-]=[N+]=NC[C@H]1O[C@@H](n2cnc3c(N)ncnc32)[C@H](O)[C@@H]1O`, the pIC50 was 4.54.

Turning to `NC[C@H]1O[C@@H](n2cnc3c(N)ncnc32)[C@H](O)[C@@H]1O`, the pIC50 was 4.12.

These data come from ChEMBL document CHEMBL1149568, “Design, synthesis, and molecular modeling studies of 5'-deoxy-5'-ureidoadenosine: 5'-ureido group as multiple hydrogen bonding donor in the active site of S-adenosylhomocysteine hydrolase” (Bioorg Med Chem Lett, 2007).
